In patent US7138361B2, “Herbicidal heterocycles” (E. I. du Pont de Nemours and Company, priority 2000, dated 2006):

How the values were obtained:
Assay type in all cases: in vivo
[1] = tested on: Surinam grass (Brachiaria decumbens); assay: Test B postemergence; settings: 13 to 15 days
Method in brief: (§1)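 Ratings on a 0 to 100 visual scale (100 complete control) compare treated plants with controls 13 to 15 days after application. Treatments were pre- or postemergence sprays of compound in non-phytotoxic solvent with surfactant.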

[2] = tested on: barnyardgrass (Echinochloa crus-galli); assay: Test B postemergence; settings: 13 to 15 days
Method in brief: as §1

[3] = tested on: blackgrass (Alopecurus myosuroides); assay: Test B postemergence; settings: 13 to 15 days
Method in brief: as §1

[4] = tested on: cocklebur (Xanthium strumarium); assay: Test B postemergence; settings: 13 to 15 days
Method in brief: as §1

corn (Zea mays) [5] = assay: Test B postemergence; settings: 13 to 15 days
Method in brief: as §1

[6] = tested on: crabgrass (Digitaria sanguinalis); assay: Test B postemergence; settings: 13 to 15 days
Method in brief: as §1

[7] = tested on: giant foxtail (Setaria faberii); assay: Test B postemergence; settings: 13 to 15 days
Method in brief: as §1

[8] = tested on: lambsquarters (Chenopodium album); assay: Test B postemergence; settings: 13 to 15 days
Method in brief: as §1

[9] = tested on: morning glory (Ipomoea hederacea); assay: Test B postemergence; settings: 13 to 15 days
Method in brief: as §1

[10] = tested on: pigweed (Amaranthus retroflexus); assay: Test B postemergence; settings: 13 to 15 days
Method in brief: as §1

[11] = tested on: velvetleaf (Abutilon theophrasti); assay: Test B postemergence; settings: 13 to 15 days
Method in brief: as §1

[12] = tested on: wheat (Triticum aestivum); assay: Test B postemergence; settings: 13 to 15 days
Method in brief: as §1

wild oat (Avena fatua) = assay: Test B postemergence; settings: 13 to 15 days
Method in brief: as §1

[13] = tested on: Surinam grass (Brachiaria decumbens); assay: Test B preemergence
Method in brief: as §1

[14] = tested on: barnyardgrass (Echinochloa crus-galli); assay: Test B preemergence
Method in brief: as §1

[15] = tested on: cocklebur (Xanthium strumarium); assay: Test B preemergence
Method in brief: as §1

corn (Zea mays) [16] = assay: Test B preemergence
Method in brief: as §1

[17] = tested on: crabgrass (Digitaria sanguinalis); assay: Test B preemergence
Method in brief: as §1

[18] = tested on: giant foxtail (Setaria faberii); assay: Test B preemergence
Method in brief: as §1

[19] = tested on: lambsquarters (Chenopodium album); assay: Test B preemergence
Method in brief: as §1

[20] = tested on: morning glory (Ipomoea hederacea); assay: Test B preemergence
Method in brief: as §1

[21] = tested on: pigweed (Amaranthus retroflexus); assay: Test B preemergence
Method in brief: as §1

rice (Oryza saliva) [22] = assay: Test B preemergence
Method in brief: as §1

[23] = tested on: velvetleaf (Abutilon theophrasti); assay: Test B preemergence
Method in brief: as §1

[24] = tested on: barnyardgrass (Echinochloa crus-galli); assay: Test B flooded paddy test; settings: Rate 1000 g/ha, scale of 0 to 100 where 0 is no effect and 100 is complete control, visually evaluated after 13 to 15 days
Method in brief: (§2)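 Treatment: formulated chemical applied to flooded paddy plants at 2-leaf stage. Hold: greenhouse, 13–15 days. Scoring: visual comparison to controls, 0 (no effect) to 100 (complete control).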

[25] = tested on: duck salad (Heteranthera limosa); assay: Test B flooded paddy test; settings: Rate 1000 g/ha, scale of 0 to 100 where 0 is no effect and 100 is complete control, visually evaluated after 13 to 15 days
Method in brief: as §2

rice (Oryza saliva) [26] = assay: Test B flooded paddy test; settings: Rate 1000 g/ha, scale of 0 to 100 where 0 is no effect and 100 is complete control, visually evaluated after 13 to 15 days
Method in brief: as §2

[27] = tested on: smallflower flatsedge (Cyperus difformis); assay: Test B flooded paddy test; settings: Rate 1000 g/ha, scale of 0 to 100 where 0 is no effect and 100 is complete control, visually evaluated after 13 to 15 days
Method in brief: as §2

[28] = tested on: barnyardgrass (Echinochloa crus-galli); assay: Test C flooded paddy test; settings: for Barnyardgrass plant response rating: Flooded Paddy, scale 0 to 100, 0 no effect, 100 complete control; for Plant response rating, Barnyardgrass: flooded paddy test, scale 0 to 100 (0 no effect, 100 complete control)
Method in brief: (§3)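 Ratings come from visual comparison with control plants after 12 to 14 days in the greenhouse. Each species was at the 2-leaf stage when the flooded paddy was treated. Scores run from 0, meaning no effect, to 100, meaning complete control.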

[29] = tested on: duck salad (Heteranthera limosa); assay: Test C flooded paddy test; settings: for Ducksalad plant response rating: Flooded Paddy, scale 0 to 100, 0 no effect, 100 complete control; for Plant response rating, Ducksalad: flooded paddy test, scale 0 to 100 (0 no effect, 100 complete control)
Method in brief: as §3

rice (Oryza saliva) [30] = assay: Test C flooded paddy test; settings: for Rice plant response rating: Flooded Paddy, scale 0 to 100, 0 no effect, 100 complete control; for Plant response rating, Rice: flooded paddy test, scale 0 to 100 (0 no effect, 100 complete control)
Method in brief: as §3

[31] = tested on: smallflower flatsedge (Cyperus difformis); assay: Test C flooded paddy test; settings: for Flatsedge plant response rating: Flooded Paddy, scale 0 to 100, 0 no effect, 100 complete control; for Plant response rating, Flatsedge: flooded paddy test, scale 0 to 100 (0 no effect, 100 complete control)
Method in brief: as §3

[32] = Rate 125 g/ha, scale 0 (no effect) to 100 (complete control)
[33] = Rate 500 g/ha, scale 0 to 100, 0 is no effect, 100 is complete control
[34] = Preemergence, Rate 500 g/ha, scale 0 to 100, 0 no effect, 100 complete control
[35] = preemergence, Rate 125 g/ha, scale 0 to 100, 0 no effect, 100 complete control
[36] = preemergence, Rate 125 g/ha, scale of 0 to 100 where 0 is no effect and 100 is complete control, 13 to 15 days

CC(C)c1ccn(C2SCN(c3cccc(C(F)(F)F)c3)C2=O)n1 (stereo not shown) [Compound 23]
Plant response rating, Surinam grass [1, 32]: 20
Plant response rating, Surinam grass [1, 33]: 20
Plant response rating, Barnyardgrass [2, 32]: 20
Plant response rating, Barnyardgrass [2, 33]: 90
Plant response rating, Blackgrass [3, 32]: 0
Plant response rating, Blackgrass [3, 33]: 20
Plant response rating, Cocklebur [4, 32]: 40
Plant response rating, Cocklebur [4, 33]: 80
Plant response rating, Corn (corn (Zea mays) [5]; [32]): 20
Plant response rating, Corn (corn (Zea mays) [5]; [33]): 50
Plant response rating, Crabgrass [6, 32]: 20
Plant response rating, Crabgrass [6, 33]: 40
Plant response rating, Foxtail, Giant [7, 32]: 20
Plant response rating, Foxtail, Giant [7, 33]: 80
Plant response rating, Lambsquarters [8, 32]: 80
Plant response rating, Lambsquarters [8, 33]: 100
Plant response rating, Morningglory [9, 32]: 20
Plant response rating, Morningglory [9, 33]: 80
Plant response rating, Pigweed [10, 32]: 70
Plant response rating, Pigweed [10, 33]: 100
Plant response rating, Velvetleaf [11, 32]: 20
Plant response rating, Velvetleaf [11, 33]: 30
Plant response rating, Wheat [12, 32]: 0
Plant response rating, Wheat [12, 33]: 0
Plant response rating, Wild Oat (wild oat (Avena fatua); [32]): 0
Plant response rating, Wild Oat (wild oat (Avena fatua); [33]): 0
Plant response rating, Surinam grass [13, 34]: 20
Plant response rating, Surinam grass [13, 35]: 0
Plant response rating, Barnyardgrass [14, 34]: 100
Plant response rating, Barnyardgrass [14, 35]: 0
Plant response rating, Cocklebur [15, 34]: 20
Plant response rating, Cocklebur [15, 35]: 0
Plant response rating, Corn (corn (Zea mays) [16]; [34]): 0
Plant response rating, Corn (corn (Zea mays) [16]; [35]): 0
Plant response rating, Crabgrass [17, 34]: 100
Plant response rating, Crabgrass [17, 35]: 70
Plant response rating, Foxtail, Giant [18, 34]: 50
Plant response rating, Foxtail, Giant [18, 35]: 50
Plant response rating, Lambsquarters [19, 34]: 100
Plant response rating, Lambsquarters [19, 35]: 100
Plant response rating, Morningglory [20, 34]: 60
Plant response rating, Morningglory [20, 35]: 0
Plant response rating, Pigweed [21, 34]: 100
Plant response rating, Pigweed [21, 35]: 100
Plant response rating, Rice (rice (Oryza saliva) [22]; [34]): 30
Plant response rating, Rice (rice (Oryza saliva) [22]; [35]): 0
Plant response rating, Velvetleaf [23, 34]: 0
Plant response rating, Velvetleaf [23, 35]: 0
Plant response rating, Barnyardgrass [24]: 0
Plant response rating, Ducksalad [25]: 100
Plant response rating, Rice (rice (Oryza saliva) [26]): 0
Plant response rating, Flatsedge [27]: 0
Barnyardgrass plant response rating ([28]; Rate 250 g/ha): 100
Barnyardgrass plant response rating ([28]; Rate 500 g/ha): 100
Plant response rating, Barnyardgrass ([28]; Rate 62 g/ha): 80
Plant response rating, Barnyardgrass ([28]; Rate 125 g/ha): 80
Ducksalad plant response rating ([29]; Rate 250 g/ha): 100
Ducksalad plant response rating ([29]; Rate 500 g/ha): 100
Plant response rating, Ducksalad ([29]; Rate 62 g/ha): 50
Plant response rating, Ducksalad ([29]; Rate 125 g/ha): 80
Rice plant response rating (rice (Oryza saliva) [30]; Rate 250 g/ha): 70
Rice plant response rating (rice (Oryza saliva) [30]; Rate 500 g/ha): 100
Plant response rating, Rice (rice (Oryza saliva) [30]; Rate 62 g/ha): 20
Plant response rating, Rice (rice (Oryza saliva) [30]; Rate 125 g/ha): 20
Flatsedge plant response rating ([31]; Rate 250 g/ha): 100
Flatsedge plant response rating ([31]; Rate 500 g/ha): 100
Plant response rating, Flatsedge ([31]; Rate 62 g/ha): 100
Plant response rating, Flatsedge ([31]; Rate 125 g/ha): 100

CC(C)Oc1ccn(C2CCN(c3cccc(C(F)(F)F)c3)C2=O)n1 (stereo not shown) [Compound 59]
Plant response rating, Surinam grass [1, 32]: 0
Plant response rating, Surinam grass [1, 33]: 0
Plant response rating, Barnyardgrass [2, 32]: 0
Plant response rating, Barnyardgrass [2, 33]: 0
Plant response rating, Blackgrass [3, 32]: 0
Plant response rating, Blackgrass [3, 33]: 0
Plant response rating, Cocklebur [4, 32]: 0
Plant response rating, Cocklebur [4, 33]: 0
Plant response rating, Corn (corn (Zea mays) [5]; [32]): 0
Plant response rating, Corn (corn (Zea mays) [5]; [33]): 0
Plant response rating, Crabgrass [6, 32]: 0
Plant response rating, Crabgrass [6, 33]: 0
Plant response rating, Foxtail, Giant [7, 32]: 0
Plant response rating, Foxtail, Giant [7, 33]: 0
Plant response rating, Lambsquarters [8, 32]: 0
Plant response rating, Lambsquarters [8, 33]: 0
Plant response rating, Morningglory [9, 32]: 0
Plant response rating, Morningglory [9, 33]: 0
Plant response rating, Pigweed [10, 32]: 0
Plant response rating, Pigweed [10, 33]: 0
Plant response rating, Velvetleaf [11, 32]: 0
Plant response rating, Velvetleaf [11, 33]: 0
Plant response rating, Wheat [12, 32]: 0
Plant response rating, Wheat [12, 33]: 0
Plant response rating, Wild Oat (wild oat (Avena fatua); [32]): 0
Plant response rating, Wild Oat (wild oat (Avena fatua); [33]): 0
Plant response rating, Surinam grass [13, 34]: 80
Plant response rating, Surinam grass [13, 36]: 60
Plant response rating, Barnyardgrass [14, 34]: 90
Plant response rating, Barnyardgrass [14, 36]: 0
Plant response rating, Cocklebur [15, 34]: 0
Plant response rating, Cocklebur [15, 36]: 0
Plant response rating, Corn (corn (Zea mays) [16]; [34]): 0
Plant response rating, Corn (corn (Zea mays) [16]; [36]): 0
Plant response rating, Crabgrass [17, 34]: 90
Plant response rating, Crabgrass [17, 36]: 20
Plant response rating, Foxtail, Giant [18, 34]: 70
Plant response rating, Foxtail, Giant [18, 36]: 0
Plant response rating, Lambsquarters [19, 34]: 100
Plant response rating, Lambsquarters [19, 36]: 0
Plant response rating, Morningglory [20, 34]: 0
Plant response rating, Morningglory [20, 36]: 0
Plant response rating, Pigweed [21, 34]: 0
Plant response rating, Pigweed [21, 36]: 0
Plant response rating, Rice (rice (Oryza saliva) [22]; [34]): 50
Plant response rating, Rice (rice (Oryza saliva) [22]; [36]): 0
Plant response rating, Velvetleaf [23, 34]: 0
Plant response rating, Velvetleaf [23, 36]: 0
Plant response rating, Barnyardgrass [24]: 100
Plant response rating, Ducksalad [25]: 70
Plant response rating, Rice (rice (Oryza saliva) [26]): 20
Plant response rating, Flatsedge [27]: 90
Barnyardgrass plant response rating ([28]; Rate 250 g/ha): 0
Barnyardgrass plant response rating ([28]; Rate 500 g/ha): 30
Plant response rating, Barnyardgrass ([28]; Rate 62 g/ha): 0
Plant response rating, Barnyardgrass ([28]; Rate 125 g/ha): 0
Ducksalad plant response rating ([29]; Rate 250 g/ha): 0
Ducksalad plant response rating ([29]; Rate 500 g/ha): 0
Plant response rating, Ducksalad ([29]; Rate 62 g/ha): 0
Plant response rating, Ducksalad ([29]; Rate 125 g/ha): 0
Rice plant response rating (rice (Oryza saliva) [30]; Rate 250 g/ha): 0
Rice plant response rating (rice (Oryza saliva) [30]; Rate 500 g/ha): 20
Plant response rating, Rice (rice (Oryza saliva) [30]; Rate 62 g/ha): 0
Plant response rating, Rice (rice (Oryza saliva) [30]; Rate 125 g/ha): 0
Flatsedge plant response rating ([31]; Rate 250 g/ha): 0
Flatsedge plant response rating ([31]; Rate 500 g/ha): 30
Plant response rating, Flatsedge ([31]; Rate 62 g/ha): 0
Plant response rating, Flatsedge ([31]; Rate 125 g/ha): 0
